Reference: PMC3281113, “Recognition of Anesthetic Barbiturates by a Protein Binding Site: A High Resolution Structural Analysis” (PLoS ONE, 2012)
Read-outs that look alike come from different tables or passages of the source.

Legend:
horse spleen apoferritin = biological target: T1, horse spleen apoferritin (Equus caballus, UniProt P02791); test: isothermal titration calorimetry; type: binding
T1 construct: gene FTL; native spleen apoferritin from Sigma-Aldrich, 24-mer, heavy and light chains in approximate mole ratio 1:6; with Ferritin heavy chain
T1 sequence (P02791 2-175): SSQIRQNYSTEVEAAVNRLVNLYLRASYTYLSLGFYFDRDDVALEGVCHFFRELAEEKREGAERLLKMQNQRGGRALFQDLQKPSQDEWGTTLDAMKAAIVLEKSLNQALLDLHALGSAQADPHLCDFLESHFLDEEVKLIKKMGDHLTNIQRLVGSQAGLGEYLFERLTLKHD

[1] = biological target: the molecule itself; test: crystal structure; apoferritin co-crystallized with thiopental or pentobarbital; reservoir 0.2-1.6 M (NH4)2SO4, 0.1-0.275 M CdSO4, 18°C; space group F432

Molecule: CCC[C@@H](C)C1(CC)C(=O)NC(=S)NC1=O [R-form of thiopental]
- Kd (horse spleen apoferritin; read-out: K d): 29.3 ± 3.1 µM

Molecule: CCC[C@H](C)[C@@]1(CC)C(=O)N=C(S)NC1=O [S-enantiomer of thiopental]
- Kd (horse spleen apoferritin; read-out: K d): 18.7 ± 0.9 µM

Molecule: CCCC(C)C1(CC)C(=O)NC(=S)NC1=O (racemic) [Thiopental]
- Kd (horse spleen apoferritin; read-out: Thiopental): 11 ± 0.9 µM

Molecule: CCCC(C)C1(CC)C(=O)NC(=O)NC1=O (racemic) [Pentobarbital]
- Kd (horse spleen apoferritin): 64.3 ± 5.5 µM

B1: horse spleen apoferritin (natural protein, UniProt P02791 1-175, looked up)
chain: MSSQIRQNYSTEVEAAVNRLVNLYLRASYTYLSLGFYFDRDDVALEGVCHFFRELAEEKREGAERLLKMQNQRGGRALFQDLQKPSQDEWGTTLDAMKAAIVLEKSLNQALLDLHALGSAQADPHLCDFLESHFLDEEVKLIKKMGDHLTNIQRLVGSQAGLGEYLFERLTLKHD
notes: ferritin light chain of horse spleen apoferritin; only the light chain is modelled in the structures; The commercial apoferritin is a mixture of heavy and light chains in an approximate mole ratio of 1:6; Only the light chain is seen in the electron density, so the 24-mer is written here as light chains only; also called L-chain; L-protomers; source: bought: Sigma-Aldrich; purified by gel …
- stoichiometry N [1]: 24
